No end group written: not given here.
Legend:
[1] = tested on: rat coronary ligation models; conditions: cited from earlier work
[2] = tested on: ventricular contractile function ex vivo; conditions: cited from earlier work
SIRT3 [3] = experiment: SIRT3 expression in ARVCs after OGD/reoxygenation (Western blot, confocal microscopy); type: cell-based, rat
Procedure: (§1) After 24 h incubation, ARVCs were pre-treated with known concentrations of ANXA1sp or scrPEP in growth medium for 1 h, and subjected to 2 h oxygen-glucose-deprivation (OGD: DMEM no glucose, 85% N2/10% H2/5% CO2) in a OGD station chamber/Anaerobic System (Farma Scientific), followed by reoxygenation with 10 μM ANXA1sp or scrPEP in growth medium for 3, 6, and 24 h in a 37° C. and 5% CO2 growth chamber, respectively.
(§2) Proteins were separated by electrophoresis on SDS-PAGE and then transferred onto PVDF-Plus membrane (Millipore). After being blocked with 5% milk, the immunoblots were probed with appropriate antibodies to SIRT3 (Cell Signaling or Abcam), MPP (Santa Cruz), MnSOD, P-AMPK, COXIV, GAPDH (Cell Signaling), and caspase-3 (Cell Signaling, MA) overnight at 4° C. followed by incubation with the corresponding secondary antibodies at room temperature for 1 h. The blots were visualized with the SuperSignal West Dura Extended Duration Substrate (Thermo Scientific) by a gel imaging system (Alpha Innotech).
Confocal studies were performed as described previously. MitoTraker Deep Red FM (Invitrogen) was added into culture medium to make the final concentration of 0.4 μM and incubated at 37° C. for 45 min. After being washed, fixed, permeabilized, and blocked, rabbit monoclonal IgG anti-SIRT3 (Abcam) was added at 4° C. for overnight. Cells were subsequently incubated with Alexa-488 conjugated goat anti-rabbit IgG (Molecular Probes) for 1 h at RT. Images were acquired with a confocal microscope (Zeiss Invert 510 Microscope).

[4] = tested on: AMP-activated protein kinase (AMPK); experiment: AMPK phosphorylation in ARVCs after OGD/reoxygenation; type: cell-based, rat; conditions: 2 h OGD, 3 h reoxygenation
Procedure: as §1, §2

cellular levels of ATP = experiment: Cellular ATP levels in ARVCs after OGD/reoxygenation; type: cell-based, rat
Procedure: as §1
(§3) Blood samples were collected from each rat at 24 h after CPB/DHCA. Samples were immediately cooled to 4° C. and centrifuged at 3,000 rpm for 10 minutes at 4° C. Serum was collected and stored at −80° C. until assay. Whole cell lysate from heart tissues was obtained according to manufacturer's instruction (Panomics) and used for measurement of pro-inflammatory cytokines IL-6, TNFα and MPO by an ELISA method (Thermo Scientific). Cellular levels of ATP were measured by ELISA (Abeam).

[5] = tested on: mitochondrial protein lysine-acetylation; experiment: Mitochondrial protein lysine acetylation in ARVCs after OGD/reoxygenation; type: cell-based, rat; conditions: ARVCs following OGD/reoxygenation
Procedure: as §1

[6] = tested on: adult rat ventricular cardiomyocytes with SIRT3 siRNA; experiment: siRNA knock-down of SIRT3 in ARVCs with simulated IR, rescue; type: cell-based; conditions: simulated ischemia-reperfusion
Procedure: ARVC siRNA transfection: after 24 h of incubation with AW Medium (Cellutron Cat #M-8034) without antibiotics, ARVCs were transfected with a specific SIRT3-siRNA or a scrambled RNA (scrRNA) as control, according to manufacturer's protocol (Santa Cruz). Transfection efficiency was estimated by Western blotting of the target protein (A). ARVC, adult rat ventricular cardiomyocytes; OGD, oxygen-glucose deprivation; scrR, scrambled RNA; siR, SIRT3 siRNA; SP, ANXA1sp; V, vehicle control; scrR+V, scramble RNA with vehicle control; scrR+SP, scramble RNA with ANXA1sp; siR+V, SIRT3 siRNA with vehicle control; siR+SP, SIRT3 siRNA with ANXA1sp; cTnI, cardiac troponin I measured in supernatant. Results presented as mean±SD (n=3). GAPDH used as loading control.

[7] = tested on: rats rendered acutely hyperglycemic, cardioplegic arrest; experiment: Rat CPB/CA model in acutely hyperglycemic rats; type: in vivo; conditions: blood glucose>300 mg/dl, Dextrose 25%, 5 gm/kg
Procedure: Because of the known effects of hyperglycemia to blunt cardioprotective mechanisms, the effects of ANXA1sp were further tested in rats rendered acutely hyperglycemic (blood glucose>300 mg/dl) through perioperative administration of Dextrose (25%, 5 gm/kg). […] Physiological parameters during the conduct of CPB/CA were similar between treatment groups.

[8] = tested on: rats, deep hypothermic circulatory arrest; experiment: Rat model of deep hypothermic circulatory arrest (DHCA), myocardial injury; type: in vivo; conditions: 60 min DHCA
Procedure: (§4) Separate groups of animals underwent 60 minutes of DHCA (18° C.) with a similar treatment design, with animals randomly assigned to sham, CPB/DHCA (Vehicle), DHCA+ANXA1sp (ANXA1sp), or DHCA+scrambled peptide (scrPEP). All rats were subjected to 60 minutes DHCA at 18° C. and received either vehicle (1% DMSO saline), ANXA1sp (total 2 mg/kg), or scrPEP (total 2 mg/kg) iv 1 h before CPB and 1 h after reperfusion (FIG. 10C). Sham operated animals were only cannulated/without CPB/DHCA as baseline control. At 3, 6, and 24 h of post-perfusion, heart and serum samples were harvested. Blood samples were collected and stored at −80° C. until analysis. A small portion of heart tissue from each animal was immediately fixed in 10% buffered formalin, embedded in paraffin, and sectioned for immunostaining, confocal colocalization microscopy, and apoptotic TUNEL staining. Myocardial whole-tissue lysates were obtained at the end of each experiment according to the manufacturer's protocol (Affymetrix). The remaining heart tissues were stored at −80° C. FIG. 10 depicts a diagram of the rat surgical model and schematics of the experimental protocols.
The following endpoints were assessed: plasma cTnI and heart-type fatty acid binding protein (HFABP, ELISA, Life Diagnosis); myocardial apoptosis as levels of cleaved caspase-3 (Western blot) and TUNEL assays (Roche); and echocardiographic left ventricular function. Myocardial levels of TNFα, IL-6, and myeloperoxidase (MPO) were analyzed by ELISA. SIRT3 and cytochrome c were measured in isolated mitochondria by Western blot.
Blood samples were collected from each rat at 24 h after CPB/DHCA. […] Cellular levels of ATP were measured by ELISA (Abeam).
TUNEL assay was performed using the In Situ Cell Death Detection Kit (Roche Molecular Biochemicals) according to manufacturer's protocol. […] The reaction was terminated with stop solution and fluorescent apoptotic signal was detected using a fluorescence microscope (Zeiss LSM 510 inverted confocal). Ten fields of each tissue section were randomly chosen and a total of 50 cells per field were counted. […]

SIRT3 [9] = experiment: Myocardial SIRT3 in DHCA rats (Western blot, confocal microscopy); type: in vivo, rat; conditions: for Expression (44-kDa) and activation (28-kDa) of myocardial SIRT3: 60 min DHCA at 18° C., 2 mg/kg iv, 3 hours post-perfusion, p<0.05 vs vehicle; for SIRT3 level and mitochondrial localization in rat myocardium (confocal): 60 min DHCA, 3 h reperfusion
Procedure: as §2, §4
Confocal studies were performed as described previously. Paraffin sections were deparaffinized using xylene and descending grades of ethanol, pretreated with microwave irradiation (350 W, for 5 min in 200 ml of 0.1M Citrate buffer, pH 6.0). Tissue sections were incubated with rabbit monoclonal IgG anti-SIRT3 (Cell Signaling) and mouse monoclonal IgG anti-COXIV (Cell Signaling) at 4° C. overnight. After washing, tissue sections were incubated with Alexa555 conjugated donkey anti-mouse IgG and Alexa488 conjugated goat anti-rabbit IgG (Molecular Probes) for 1 h at RT. Images were acquired with a confocal microscope (Zeiss Invert 510 Microscope). The control experiments were performed using mouse IgG and/or rabbit IgG.

[10] = tested on: protein lysine acetylation; experiment: Protein lysine acetylation in left ventricular myocardial lysates of DHCA rats; type: in vivo, rat; conditions: 60 min DHCA, 6 h reperfusion
Procedure: (§5) FIG. 15. Increased SIRT3 activity with ANXA1sp treatment is associated with reduced protein lysine acetylation in left ventricular myocardial lysates from rats following 60 min DHCA and 6 h reperfusion (panel A). This included deacetylation of MnSOD (known to increase its reactive oxygen species scavenging activity). Acetylated proteins were immunoprecipitated with anti-acetyl lysine antibody, and deacetylated MnSOD levels were assessed in the supernatant via Western blot (panel B). […] Results presented as mean±SD (n=5/group), *P<0.05. anti-Ac-K, acetylated lysine antibody; IP, immuno-precipitation; WB, Western blot; ROS, reactive oxygen species; MnSOD, manganese superoxide dismutase.
(§6) Separate groups of animals underwent 60 minutes of DHCA (18° C.) with a similar treatment design, with animals randomly assigned to sham, CPB/DHCA (Vehicle), DHCA+ANXA1sp (ANXA1sp), or DHCA+scrambled peptide (scrPEP). All rats were subjected to 60 minutes DHCA at 18° C. and received either vehicle (1% DMSO saline), ANXA1sp (total 2 mg/kg), or scrPEP (total 2 mg/kg) iv 1 h before CPB and 1 h after reperfusion (FIG. 10C). Sham operated animals were only cannulated/without CPB/DHCA as baseline control. At 3, 6, and 24 h of post-perfusion, heart and serum samples were harvested. Blood samples were collected and stored at −80° C. until analysis. […]

reactive oxygen species = experiment: Reactive oxygen species in hearts of DHCA rats (ELISA); type: in vivo, rat; conditions: 60 min DHCA, 6 h reperfusion
Procedure: as §5, §6

[11] = tested on: AMP-activated protein kinase (AMPK); experiment: AMPK phosphorylation in myocardium of DHCA rats; type: in vivo, rat; conditions: 60 min DHCA, 3 h reperfusion
Procedure: (§7) FIG. 16. […] Results presented as mean±SD (n=5), *P<0.05 and ^#P<0.01. P-AMPK, phosphorylated AMPK. GAPDH used as loading control.
as §4

myocardial levels of ATP = experiment: Myocardial ATP levels in DHCA rats; type: in vivo, rat; conditions: 60 min DHCA, 3 h reperfusion
Procedure: as §7, §3

NF-κB p65 subunit = experiment: NF-κB p65 acetylation and NF-κB activity in DHCA rats; type: in vivo, rat
Procedure: FIG. 18. Increased SIRT1 expression with ANXA1sp treatment is also associated with reduced acetylation of NF-κB p65 subunit (at lysine 310 residue) following DHCA in rats. Rats underwent 1 hour DHCA at 18° C. and received either vehicle or ANXA1sp (2 mg/kg, iv) followed by 6 hours reperfusion. Levels of acetylated NF-κB p65 were determined in left ventricular myocardium tissue lysates by Western blot. Results presented as mean±SD (n=4), *p<0.001. DHCA, deep hypothermic circulatory arrest; P65-Ac(K310), lysine 310 acetylated NF-κB p65 subunit. GAPDH used as loading control.
as §4

## Ac-Ala-Met-Val-Ser-Glu-Phe-Leu-Lys-Gln-Ala-Trp-Phe-Ile-Glu-Asn-Glu-Glu-Gln-Glu-Tyr-Val-Gln-Tyr-Val-Lys (Ac-AMVSEFLKQAWFIENEEQEYVQYVK) [Ac2-26, 25mer peptide derived from annexin 1, commercially available]
[1]
  Neutrophil dependent myocardial necrosis: inhibits neutrophil dependent myocardial necrosis
[2]
  Post-ischemic recovery of ventricular contractile function: improves post-ischemic recovery of ventricular contractile function

## Ac-Gln-Ala-Trp [ANXA1sp]
SIRT3 [3]; ARVCs after OGD/reoxygenation, Western blot
  SIRT3 full-length and short form proteins in cell lysates: significantly increased SIRT3 in both full-length and short form proteins
SIRT3 [3]; ARVCs subjected to OGD
  SIRT3 expression in isolated mitochondria: increased SIRT3 expression in isolated mitochondria
SIRT3 [3]; cultured ARVCs, 10 μM, 2 h OGD, 3 h reoxygenation
  SIRT3 in mitochondria by confocal microscopy: significantly increased in mitochondria
[4]
  Phosphorylation of AMPK: increased phosphorylation of AMPK
Cellular levels of ATP
  ATP concentrations: increased ATP concentrations
[5]
  Protein acetylation: significant reduction in protein acetylation
[6]
  Rescue of increased cell necrosis and apoptosis after SIRT3 knock down: partially rescued
[7]
  Hyperglycemic exacerbation of myocardial injury and inflammation: significantly attenuated
[8]
  Cleaved caspase-3 activity by Western blot: significantly decreased
[8]; 24 h post-reperfusion
  Myocardial apoptosis by TUNEL staining: significantly decreased myocardial apoptosis
[8]; multiple reperfusion time points
  Serum cTnI (ELISA): significantly decreased
SIRT3 [9]
  Expression (44-kDa) and activation (28-kDa) of myocardial SIRT3: significantly restored expression and activation of SIRT3
  SIRT3 level and mitochondrial localization in rat myocardium (confocal): robustly increased SIRT3 and was predominantly localized in the mitochondria
[10]
  Protein acetylation in myocardial tissue homogenates: significant reduction of protein acetylation
Reactive oxygen species
  Cellular levels of reactive oxygen species in hearts: decreased cellular levels of reactive oxygen species
[11]
  Phosphorylation of AMPK (P-AMPK) in left ventricular myocardial lysates: increased phosphorylation of AMP-activated protein kinase
Myocardial levels of ATP
  Myocardial levels of ATP: increased myocardial levels of ATP
NF-κB p65 subunit; 1 hour DHCA, 2 mg/kg iv, 6 hours reperfusion
  Acetylation of NF-κB p65 (K310): attenuated acetylation of NF-kB p65
NF-κB p65 subunit; DHCA rats
  NF-κB transcriptional activity: suppressed NF-κB transcriptional activity
  NF-κB-mediated gene expression of TNFα: significantly down-regulated

## Ac-W^10Q^11A^12 [scrPEP, reference compound]
SIRT3 [9]
  Expression (44-kDa) and activation (28-kDa) of myocardial SIRT3: had no such effects
  SIRT3 level and mitochondrial localization in rat myocardium (confocal): has no such effects

From patent US10172915B2, “Methods and compositions for activation of sirtuins with Annexin A1 peptides” (Duke University, priority 2013, dated 2019)
